Consider 35 compounds from the NIST ThermoML archive (doi:10.1016/j.fluid.2014.11.020).

± gives the expanded uncertainty stated by the source.

The data set is described as follows: activity coefficient (dimensionless); of the first substance listed, at infinite dilution; xn = mol fraction of the nth substance listed. The note with it: Liquid, Chromatography, x1 = 0.

In the case of `C#CCCCCC` [1-heptyne] + Cn1cc[n+](COCCCOC[n+]2ccn(C)c2)c1.O=S(=O)([N-]S(=O)(=O)C(F)(F)F)C(F)(F)F.O=S(=O)([N-]S(=O)(=O)C(F)(F)F)C(F)(F)F, the activity coefficient was determined as 5.9 ± 0.4 (323.15 K), 6.09 ± 0.42 (333.15 K) and 5.71 ± 0.39 (343.15 K).
The corresponding values for `C1CCCCC1` [cyclohexane] + CCCOC[n+]1ccn(C)c1.F[B-](F)(F)F are 46.7 ± 3.2, 40.6 ± 2.8 and 36.4 ± 2.5.
With `c1ccccc1` [benzene] + CCCOC[n+]1ccn(C)c1.N#C[N-]C#N, the activity coefficient is, setting by setting: (323.15 K) 2.25 ± 0.15; (333.15 K) 2.27 ± 0.15; (343.15 K) 2.29 ± 0.16.
As to `CCCCCCCC` [octane] + CN(C)c1cc[n+](COCCCOC[n+]2ccc(N(C)C)cc2)cc1.O=S(=O)([N-]S(=O)(=O)C(F)(F)F)C(F)(F)F.O=S(=O)([N-]S(=O)(=O)C(F)(F)F)C(F)(F)F, the activity coefficient runs as follows: (323.15 K) 37.9 ± 2.6; (333.15 K) 34.5 ± 2.4; (343.15 K) 30 ± 2.
The corresponding values for `CCN(CC)CC` [triethylamine] + CCCOC[n+]1ccn(C)c1.N#C[N-]C#N are 10.3 ± 0.7, 15.7 ± 1.1 and 24.8 ± 1.7.
Regarding `Cc1ccccc1C` [1,2-dimethylbenzene] + Cn1cc[n+](COCCCOC[n+]2ccn(C)c2)c1.N#C[N-]C#N.N#C[N-]C#N, the activity coefficient is, setting by setting: (323.15 K) 8.42 ± 0.57; (333.15 K) 8.26 ± 0.56; (343.15 K) 8.25 ± 0.56.
On the same counts, the results for `CC1CCCCC1` [methylcyclohexane] + CCCCCCCCn1cc[n+](COCCCOC[n+]2ccn(CCCCCCCC)c2C)c1C.O=S(=O)([N-]S(=O)(=O)C(F)(F)F)C(F)(F)F.O=S(=O)([N-]S(=O)(=O)C(F)(F)F)C(F)(F)F are 2.94 ± 0.2, 2.71 ± 0.18 and 2.73 ± 0.19.
The corresponding values for `C1CCCCCC1` [cycloheptane] + CCCOC[n+]1ccn(C)c1.O=S(=O)([N-]S(=O)(=O)C(F)(F)F)C(F)(F)F are 27.2 ± 1.9, 35.8 ± 2.5 and 46.1 ± 3.2.
On the same counts, the results for `CC(C)OC(C)C` [diisopropyl ether] + Cn1cc[n+](COCCCOC[n+]2ccn(C)c2)c1.O=S(=O)([N-]S(=O)(=O)C(F)(F)F)C(F)(F)F.O=S(=O)([N-]S(=O)(=O)C(F)(F)F)C(F)(F)F are 6.31 ± 0.43, 6.51 ± 0.44 and 5.54 ± 0.38.
Turning to `Cc1cccc(C)c1` [1,3-dimethylbenzene] + CCCOC[n+]1ccn(C)c1.O=S(=O)([N-]S(=O)(=O)C(F)(F)F)C(F)(F)F, the activity coefficient (323.15 K) stood at 2.59 ± 0.18, the activity coefficient (333.15 K) is 2.54 ± 0.17 and the activity coefficient (343.15 K) was found to be 2.54 ± 0.17.
`CCCO` [propan-1-ol] + CCCCCCCCn1cc[n+](COCCCOC[n+]2ccn(CCCCCCCC)c2C)c1C.O=S(=O)([N-]S(=O)(=O)C(F)(F)F)C(F)(F)F.O=S(=O)([N-]S(=O)(=O)C(F)(F)F)C(F)(F)F: the activity coefficient (323.15 K) stood at 0.72 ± 0.05, the activity coefficient (333.15 K) came to 0.65 ± 0.04 and the activity coefficient (343.15 K) came out at 0.77 ± 0.05.
On the same counts, the results for `CCCO` [propan-1-ol] + CCCCCCCCn1cc[n+](COCCCOC[n+]2ccn(CCCCCCCC)c2C)c1C.N#C[N-]C#N.N#C[N-]C#N are 0.32 ± 0.03, 0.32 ± 0.03 and 0.31 ± 0.03.
The corresponding values for `ClC(Cl)Cl` [trichloromethane] + CCCOC[n+]1ccn(Cc2ccccc2)c1.O=S(=O)([N-]S(=O)(=O)C(F)(F)F)C(F)(F)F are 0.73 ± 0.05, 0.65 ± 0.04 and 0.66 ± 0.05.
The corresponding values for `CCCCCCCCCCC` [undecane] + N#C[N-]C#N.N#C[N-]C#N.c1ccc(Cn2cc[n+](COCCCOC[n+]3ccn(Cc4ccccc4)c3)c2)cc1 are 554 ± 38, 508 ± 35 and 457 ± 31.
For the compound `CCCCO` [butan-1-ol] + CCCCCCCCn1cc[n+](COCCCOC[n+]2ccn(CCCCCCCC)c2C)c1C.N#C[N-]C#N.N#C[N-]C#N, the activity coefficient by setting is: (323.15 K) 7.49 ± 0.51; (333.15 K) 5.96 ± 0.41; (343.15 K) 4.81 ± 0.33.
The corresponding values for `C1COCCO1` [1,4-dioxane] + CCCOC[n+]1ccn(Cc2ccccc2)c1.F[B-](F)(F)F are 0.95 ± 0.06, 0.95 ± 0.06 and 0.96 ± 0.06.
For the compound `CCC(=O)CC` [pentan-3-one] + CCCOC[n+]1ccn(Cc2ccccc2)c1.O=S(=O)([N-]S(=O)(=O)C(F)(F)F)C(F)(F)F, the activity coefficient (323.15 K) turned out to be 0.43 ± 0.04, the activity coefficient (333.15 K) was 0.43 ± 0.04 and the activity coefficient (343.15 K) was found to be 0.44 ± 0.04.
As for `CCC(C)=O` [butanone] + CCCOC[n+]1ccn(C)c1.F[B-](F)(F)F, the activity coefficient (323.15 K) is 1.73 ± 0.12, the activity coefficient (333.15 K) was 1.6 ± 0.11 and the activity coefficient (343.15 K) was 1.49 ± 0.1.
On the same counts, the results for `CC(C)O` [propan-2-ol] + CN(C)c1cc[n+](COCCCOC[n+]2ccc(N(C)C)cc2)cc1.O=S(=O)([N-]S(=O)(=O)C(F)(F)F)C(F)(F)F.O=S(=O)([N-]S(=O)(=O)C(F)(F)F)C(F)(F)F are 1.42 ± 0.09, 1.3 ± 0.08 and 1.18 ± 0.08.
The corresponding values for `c1ccccc1` [benzene] + CCCCCCCCn1cc[n+](COCCC)c1C.O=S(=O)([N-]S(=O)(=O)C(F)(F)F)C(F)(F)F are 0.6 ± 0.04, 0.59 ± 0.04 and 0.59 ± 0.04.
The corresponding values for `CC#N` [acetonitrile] + CCCCCCCCn1cc[n+](COCCCOC[n+]2ccn(CCCCCCCC)c2C)c1C.N#C[N-]C#N.N#C[N-]C#N are 0.46 ± 0.04, 0.46 ± 0.04 and 0.45 ± 0.04.
On to `CCC(=O)CC` [pentan-3-one] + CCCCCCCCn1cc[n+](COCCCOC[n+]2ccn(CCCCCCCC)c2C)c1C.N#C[N-]C#N.N#C[N-]C#N, for which the activity coefficient is 0.75 ± 0.05 (323.15 K), 0.76 ± 0.05 (333.15 K) and 0.78 ± 0.05 (343.15 K).
The corresponding values for `C#CCCCC` [1-hexyne] + Cn1cc[n+](COCCCOC[n+]2ccn(C)c2)c1.N#C[N-]C#N.N#C[N-]C#N are 15.8 ± 1.1, 15.2 ± 1 and 14.6 ± 1.
On the same counts, the results for `CCCCCC` [hexane] + CCCCCCCCn1cc[n+](COCCCOC[n+]2ccn(CCCCCCCC)c2C)c1C.O=S(=O)([N-]S(=O)(=O)C(F)(F)F)C(F)(F)F.O=S(=O)([N-]S(=O)(=O)C(F)(F)F)C(F)(F)F are 3.74 ± 0.25, 3.59 ± 0.24 and 3.45 ± 0.23.
Take `CCOCC` [diethyl ether] + CCCOC[n+]1ccn(Cc2ccccc2)c1.F[B-](F)(F)F: the activity coefficient is, setting by setting: (323.15 K) 6.03 ± 0.41; (333.15 K) 5.79 ± 0.39.
As for `CC1CCCCC1` [methylcyclohexane] + CCCOC[n+]1ccn(C)c1.F[B-](F)(F)F, the activity coefficient turned out to be 76 ± 5.2 (323.15 K), 70.4 ± 4.8 (333.15 K) and 59.7 ± 4.1 (343.15 K).
The corresponding values for `CCCCCCCCCC` [decane] + CN(C)c1cc[n+](COCCCOC[n+]2ccc(N(C)C)cc2)cc1.O=S(=O)([N-]S(=O)(=O)C(F)(F)F)C(F)(F)F.O=S(=O)([N-]S(=O)(=O)C(F)(F)F)C(F)(F)F are 79.5 ± 5.5, 71 ± 4.9 and 63 ± 4.3.
The corresponding values for `C[N+](=O)[O-]` [nitromethane] + CCCCCCCCn1cc[n+](COCCC)c1C.O=S(=O)([N-]S(=O)(=O)C(F)(F)F)C(F)(F)F are 0.56 ± 0.04, 0.52 ± 0.04 and 0.52 ± 0.04.
Consider `Cc1ccc(C)cc1` [1,4-dimethylbenzene] + Cn1cc[n+](COCCCOC[n+]2ccn(C)c2)c1.O=S(=O)([N-]S(=O)(=O)C(F)(F)F)C(F)(F)F.O=S(=O)([N-]S(=O)(=O)C(F)(F)F)C(F)(F)F, for which the activity coefficient was 2.39 ± 0.16 (323.15 K), 2.41 ± 0.16 (333.15 K) and 2.34 ± 0.16 (343.15 K).
The corresponding values for `CCCCCCCCCCCCCC` [tetradecane] + CCCOC[n+]1ccn(C)c1.N#C[N-]C#N are 1510 ± 100, 1390 ± 96 and 1260 ± 87.
On the same counts, the results for `Cc1ccc(C)cc1` [1,4-dimethylbenzene] + CCCOC[n+]1ccn(C)c1.F[B-](F)(F)F are 10.7 ± 0.73, 10.3 ± 0.7 and 10.2 ± 0.7.
On the same counts, the results for `C1COCCO1` [1,4-dioxane] + CCCCCCCCn1cc[n+](COCCCOC[n+]2ccn(CCCCCCCC)c2C)c1C.O=S(=O)([N-]S(=O)(=O)C(F)(F)F)C(F)(F)F.O=S(=O)([N-]S(=O)(=O)C(F)(F)F)C(F)(F)F are 0.28 ± 0.03, 0.27 ± 0.03 and 0.28 ± 0.03.
In the case of `c1ccsc1` [thiophene] + CCCOC[n+]1ccn(Cc2ccccc2)c1.O=S(=O)([N-]S(=O)(=O)C(F)(F)F)C(F)(F)F, the activity coefficient (323.15 K) was determined as 0.7 ± 0.05, the activity coefficient (333.15 K) turned out to be 0.62 ± 0.04 and the activity coefficient (343.15 K) worked out at 0.62 ± 0.04.
Consider `CCCCCCCCCCCC` [dodecane] + CCCOC[n+]1ccn(C)c1.O=S(=O)([N-]S(=O)(=O)C(F)(F)F)C(F)(F)F, for which the activity coefficient is, setting by setting: (323.15 K) 132 ± 9.1; (333.15 K) 118 ± 8.1; (343.15 K) 105 ± 7.2.
The corresponding values for `c1ccsc1` [thiophene] + Cn1cc[n+](COCCCOC[n+]2ccn(C)c2)c1.O=S(=O)([N-]S(=O)(=O)C(F)(F)F)C(F)(F)F.O=S(=O)([N-]S(=O)(=O)C(F)(F)F)C(F)(F)F are 0.77 ± 0.05, 0.78 ± 0.05 and 0.78 ± 0.05.
